Experimental data from patent US10590411B2, “Crude biological derivatives competent for nucleic acid detection” (APPLIED BIOSYSTEMS, LLC, priority 2002, dated 2020).

System: tissue plasminogen activator (t-PA)
Test: t-PA mRNA level after PMA treatment, one-step real-time RT-PCR on cell lysate
Assay type: cell-based
Conditions: HeLa cells, 100 and 10 nM PMA, 24 hours, normalized to 18S rRNA
Procedure: FIG. 3. Illustrates an example of measuring the levels of 18S rRNA and tPA mRNA in HeLa cells that were incubated with different concentrations of PMA by one-step, real-time RT-PCR in the ABI 7700. The cells were processed in 96-well plates using the methods of the invention.
Cells were grown overnight in 0.2 ml DME media with 10% FBS with equal number of cells in each well of a 96-well plate. After an overnight incubation, phorbol myristate acetate (PMA) is added to final concentrations of 100, 10, 1, 0.1, and 0 nM in the growth medium in replicates of eight. The cells were incubated at 37° C. for 24 hours. The 96-well plate and lid were placed on the Packard MultiPROBE® II HT Liquid Handling System from PerkinElmer Life Sciences on the proper deck positions. All proceeding steps were entered into the WinPrep for automation. The growth medium was removed and the cells washed with 1×PBS. A volume of 0.1 ml Cell Lysis Buffer is added to each well. The plate was moved to a heating tile, for example, a tile at 75°, and incubated for 10 minutes. […] The plate was shaken for 2 minutes. PMSF can be used when the heating tile cannot heat the sample to 75° C. to inactivate the proteinase K. Two μl DNase I (2 U/μl) was added to each well and the plate was moved to a 37° C. heating tile. The plate was incubated for 15 minutes while shaking. […] The plate was ready for one-step RT-PCR. […]

Compound: CCCCCCCCCCCCCC(=O)O[C@@H]1[C@@H](C)[C@@]2(O)[C@@H](C=C(CO)C[C@]3(O)C(=O)C(C)=C[C@@H]23)[C@@H]2C(C)(C)[C@]12OC(C)=O [PMA, phorbol myristate acetate]
- stimulation of t-PA: ~29 fold
